{"source": "PubChem BioAssay (NCI)", "test_in_all_cases": "NCI tumour cell line growth inhibition, 48 h", "key": {"SF-268 CNS": {"test_system": "SF-268 CNS"}, "RXF 393 renal": {"test_system": "RXF 393 renal"}, "K-562 leukemia": {"test_system": "K-562 leukemia"}, "UACC-62 melanoma": {"test_system": "UACC-62 melanoma"}, "HOP-92 NSCLC": {"test_system": "HOP-92 NSCLC"}, "PC-3 prostate": {"test_system": "PC-3 prostate"}, "NCI-H460 lung": {"test_system": "NCI-H460 lung"}, "NCI-H23 lung": {"test_system": "NCI-H23 lung"}, "RPMI-8226 leukemia": {"test_system": "RPMI-8226 leukemia"}, "OVCAR-5 ovarian": {"test_system": "OVCAR-5 ovarian"}, "SN12C renal": {"test_system": "SN12C renal"}, "OVCAR-8 ovarian": {"test_system": "OVCAR-8 ovarian"}, "HCT-15 colon": {"test_system": "HCT-15 colon"}, "EKVX NSCLC": {"test_system": "EKVX NSCLC"}, "SF-295 CNS": {"test_system": "SF-295 CNS"}, "HS 578T breast": {"test_system": "HS 578T breast"}, "KM12 colon": {"test_system": "KM12 colon"}, "NCI-H522 lung": {"test_system": "NCI-H522 lung"}, "MDA-MB-231 breast": {"test_system": "MDA-MB-231 breast"}, "786-0 renal": {"test_system": "786-0 renal"}, "MDA-N": {"test_system": "MDA-N"}, "A549 NSCLC": {"test_system": "A549 NSCLC"}, "MDA-MB-435": {"test_system": "MDA-MB-435"}, "SK-OV-3 ovarian": {"test_system": "SK-OV-3 ovarian"}, "CCRF-CEM leukemia": {"test_system": "CCRF-CEM leukemia"}, "UO-31 renal": {"test_system": "UO-31 renal"}, "NCI/ADR-RES ovarian": {"test_system": "NCI/ADR-RES ovarian"}, "A498 renal": {"test_system": "A498 renal"}, "SNB-19 CNS": {"test_system": "SNB-19 CNS"}, "UACC-257 melanoma": {"test_system": "UACC-257 melanoma"}, "U251 CNS": {"test_system": "U251 CNS"}, "IGROV1 ovarian": {"test_system": "IGROV1 ovarian"}, "CAKI-1 renal": {"test_system": "CAKI-1 renal"}, "SR leukemia": {"test_system": "SR leukemia"}, "SF-539 CNS": {"test_system": "SF-539 CNS"}, "MOLT-4 leukemia": {"test_system": "MOLT-4 leukemia"}, "SK-MEL-2 melanoma": {"test_system": "SK-MEL-2 melanoma"}, "M14 melanoma": {"test_system": "M14 melanoma"}, "HCC-2998 colon": {"test_system": "HCC-2998 colon"}, "COLO 205 colon": {"test_system": "COLO 205 colon"}, "ACHN renal": {"test_system": "ACHN renal"}, "MALME-3M melanoma": {"test_system": "MALME-3M melanoma"}, "SW-620 colon": {"test_system": "SW-620 colon"}, "OVCAR-4 ovarian": {"test_system": "OVCAR-4 ovarian"}, "HT29 colon": {"test_system": "HT29 colon"}, "TK-10 renal": {"test_system": "TK-10 renal"}, "MCF7 breast": {"test_system": "MCF7 breast"}, "OVCAR-3 ovarian": {"test_system": "OVCAR-3 ovarian"}, "SNB-75 CNS": {"test_system": "SNB-75 CNS"}, "BT-549 breast": {"test_system": "BT-549 breast"}, "SK-MEL-5 melanoma": {"test_system": "SK-MEL-5 melanoma"}, "LOX IMVI melanoma": {"test_system": "LOX IMVI melanoma"}, "NCI-H226 lung": {"test_system": "NCI-H226 lung"}, "HCT-116 colon": {"test_system": "HCT-116 colon"}, "HOP-62 NSCLC": {"test_system": "HOP-62 NSCLC"}, "DU-145 prostate": {"test_system": "DU-145 prostate"}, "T-47D breast": {"test_system": "T-47D breast"}, "SK-MEL-28 melanoma": {"test_system": "SK-MEL-28 melanoma"}}, "note": "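Where inhibition never reached the appropriate level, the endpoint shown equals the highest concentration tested. Otherwise, values were interpolated linearly from a five-concentration, 48-hour dose response in 96-well plates. TGI: concentration producing complete growth inhibition.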"}
{"smiles": "CCOC(=O)c1cn2c(n1)sc1cc(C)c(C)cc12", "values": [{"measurement": "TGI", "setting": "SF-268 CNS", "result": 52.7, "unit": "µM"}, {"measurement": "TGI", "setting": "RXF 393 renal", "result": 51.2, "unit": "µM"}, {"measurement": "TGI", "setting": "K-562 leukemia", "result": "> 100", "unit": "µM"}, {"measurement": "TGI", "setting": "UACC-62 melanoma", "result": "> 100", "unit": "µM"}, {"measurement": "TGI", "setting": "HOP-92 NSCLC", "result": 65.4, "unit": "µM"}, {"measurement": "TGI", "setting": "PC-3 prostate", "result": 45.7, "unit": "µM"}, {"measurement": "TGI", "setting": "NCI-H460 lung", "result": "> 100", "unit": "µM"}, {"measurement": "TGI", "setting": "NCI-H23 lung", "result": "> 100", "unit": "µM"}, {"measurement": "TGI", "setting": "RPMI-8226 leukemia", "result": 82.7, "unit": "µM"}, {"measurement": "TGI", "setting": "OVCAR-5 ovarian", "result": 36.4, "unit": "µM"}, {"measurement": "TGI", "setting": "SN12C renal", "result": 36.8, "unit": "µM"}, {"measurement": "TGI", "setting": "OVCAR-8 ovarian", "result": 52.3, "unit": "µM"}, {"measurement": "TGI", "setting": "HCT-15 colon", "result": "> 100", "unit": "µM"}, {"measurement": "TGI", "setting": "EKVX NSCLC", "result": 61.7, "unit": "µM"}, {"measurement": "TGI", "setting": "SF-295 CNS", "result": "> 100", "unit": "µM"}, {"measurement": "TGI", "setting": "HS 578T breast", "result": 79.3, "unit": "µM"}, {"measurement": "TGI", "setting": "KM12 colon", "result": "> 100", "unit": "µM"}, {"measurement": "TGI", "setting": "NCI-H522 lung", "result": 94.4, "unit": "µM"}, {"measurement": "TGI", "setting": "MDA-MB-231 breast", "result": 58.4, "unit": "µM"}, {"measurement": "TGI", "setting": "786-0 renal", "result": 34.9, "unit": "µM"}, {"measurement": "TGI", "setting": "MDA-N", "result": 22, "unit": "µM"}, {"measurement": "TGI", "setting": "A549 NSCLC", "result": 38.2, "unit": "µM"}, {"measurement": "TGI", "setting": "MDA-MB-435", "result": "> 100", "unit": "µM"}, {"measurement": "TGI", "setting": "SK-OV-3 ovarian", "result": 69.2, "unit": "µM"}, {"measurement": "TGI", "setting": "CCRF-CEM leukemia", "result": "> 100", "unit": "µM"}, {"measurement": "TGI", "setting": "UO-31 renal", "result": 35.4, "unit": "µM"}, {"measurement": "TGI", "setting": "NCI/ADR-RES ovarian", "result": 67.5, "unit": "µM"}, {"measurement": "TGI", "setting": "A498 renal", "result": 32.6, "unit": "µM"}, {"measurement": "TGI", "setting": "SNB-19 CNS", "result": 42.9, "unit": "µM"}, {"measurement": "TGI", "setting": "UACC-257 melanoma", "result": "> 100", "unit": "µM"}, {"measurement": "TGI", "setting": "U251 CNS", "result": 41.2, "unit": "µM"}, {"measurement": "TGI", "setting": "IGROV1 ovarian", "result": 56.5, "unit": "µM"}, {"measurement": "TGI", "setting": "CAKI-1 renal", "result": 39.4, "unit": "µM"}, {"measurement": "TGI", "setting": "SR leukemia", "result": "> 100", "unit": "µM"}, {"measurement": "TGI", "setting": "SF-539 CNS", "result": 29.6, "unit": "µM"}, {"measurement": "TGI", "setting": "MOLT-4 leukemia", "result": 91.1, "unit": "µM"}, {"measurement": "TGI", "setting": "SK-MEL-2 melanoma", "result": "> 100", "unit": "µM"}, {"measurement": "TGI", "setting": "M14 melanoma", "result": 85.2, "unit": "µM"}, {"measurement": "TGI", "setting": "HCC-2998 colon", "result": "> 100", "unit": "µM"}, {"measurement": "TGI", "setting": "COLO 205 colon", "result": 55, "unit": "µM"}, {"measurement": "TGI", "setting": "ACHN renal", "result": 35.3, "unit": "µM"}, {"measurement": "TGI", "setting": "MALME-3M melanoma", "result": 35.1, "unit": "µM"}, {"measurement": "TGI", "setting": "SW-620 colon", "result": 65.1, "unit": "µM"}, {"measurement": "TGI", "setting": "OVCAR-4 ovarian", "result": "> 100", "unit": "µM"}, {"measurement": "TGI", "setting": "HT29 colon", "result": 33.8, "unit": "µM"}, {"measurement": "TGI", "setting": "TK-10 renal", "result": 57.1, "unit": "µM"}, {"measurement": "TGI", "setting": "MCF7 breast", "result": "> 100", "unit": "µM"}, {"measurement": "TGI", "setting": "OVCAR-3 ovarian", "result": 32.5, "unit": "µM"}, {"measurement": "TGI", "setting": "SNB-75 CNS", "result": 44.8, "unit": "µM"}, {"measurement": "TGI", "setting": "BT-549 breast", "result": 72.4, "unit": "µM"}, {"measurement": "TGI", "setting": "SK-MEL-5 melanoma", "result": 32.1, "unit": "µM"}, {"measurement": "TGI", "setting": "LOX IMVI melanoma", "result": "> 100", "unit": "µM"}, {"measurement": "TGI", "setting": "NCI-H226 lung", "result": 44.9, "unit": "µM"}, {"measurement": "TGI", "setting": "HCT-116 colon", "result": 33.7, "unit": "µM"}, {"measurement": "TGI", "setting": "HOP-62 NSCLC", "result": 34.3, "unit": "µM"}, {"measurement": "TGI", "setting": "DU-145 prostate", "result": 48.8, "unit": "µM"}, {"measurement": "TGI", "setting": "T-47D breast", "result": 62.1, "unit": "µM"}, {"measurement": "TGI", "setting": "SK-MEL-28 melanoma", "result": 48.4, "unit": "µM"}]}
